A short description of one series: Solubility in water. It is filed as physicochemical.
The subject of a further series is Alternaria alternata. In words: Zone of inhibition assay on TLC plates overlaid with agar containing fungal spores. To be noted: 10 μl spotted. It is filed as cell-based. On the procedure: (§1) Fungi used: Alternaria alternata, Aureobasidium pullulans, Cladosporium cladosporioides, Penicillium digitatum Method: Base formulas for A, B, C and D were prepared as described in Table 1 below. Subsequently, test solutions were prepared either by: (1) taking a furanone or a base formula alone; or (2) by adding small amounts of suitably solubilized furanone (i.e., normally using ethanol) to a base formula so as to deliver a series of furanone concentrations in the test solutions (i.e., 10 ug/ml, 5 ug/ml, 1 ug/ml, 500 ng/ml, 100 ng/ml and 10 ng/ml). […] The various test solutions are set out at the left-hand margin of Tables 2A to 2D and can be described as follows: Once the test solutions were prepared, 10 μl of each test solution was spotted onto TLC plates. The plates were overlaid with agar containing fungal spores. The TLC plates were incubated in a high humidity environment until growth could be observed visually. At inhibitory furanone concentrations, a zone of inhibition where no fungal growth was observed formed above the test solution spot. Lower furanone concentrations resulting in a zone of inhibition correspond to higher test solution efficacy.

In another series the test system is Penicillium digitatum. The description is as above. It is filed as cell-based. To be noted: 10 μl spotted. On the procedure:
as §1

Series [1] has as its system Cladosporium cladosporioides. The series is described as above. Type of series: cell-based. To be noted: 10 μl spotted. On the procedure:
as §1

Another series concerns Aureobasidium pullulans. Described as above. It is filed as cell-based. To be noted: 10 μl spotted. The procedure: as §1
[2] abbreviates: 10 ng/ml furanone in test solution.
Where [3] appears, read: 100 ng/ml furanone in test solution.
The mark [4] stands for this setting: 500 ng/ml furanone in test solution.
[5] abbreviates: 5 μg/ml furanone in test solution.
Where [6] appears, read: 10 μg/ml furanone in test solution.
The mark [7] stands for this setting: 1 μg/ml furanone in test solution.

Each structure is given as a SMILES string.

Consider `O=C1C=C(Br)/C(=C/Br)O1` [Furanone 30], for which the Solubility in water entry in the series “Solubility in water” is listed as “sparingly soluble in water”. Besides, the “Zone of Inhibition with 10 ng/ml of Furanone (mm)” value (in the series with Alternaria alternata (setting [2]); in the series with Penicillium digitatum (setting [2]); in series [1] (setting [2]); with Aureobasidium pullulans (setting [2])) was 0 mm in each case. The “Zone of Inhibition with 100 ng/ml of Furanone (mm)” value was 2-3 mm with Alternaria alternata (setting [3]), 0 mm in the series with Penicillium digitatum (setting [3]), 9-10 mm in series [1] (setting [3]) and 0 mm with Aureobasidium pullulans (setting [3]). Besides, the “Zone of Inhibition with 500 ng/ml of Furanone (mm)” value is listed as 3-4 mm with Alternaria alternata (setting [4]), 10-19 mm in the series on Penicillium digitatum (setting [4]), 20-21 mm in series [1] (setting [4]) and 0 mm in the series on Aureobasidium pullulans (setting [4]). Further, the “Zone of Inhibition with 5 μg/ml of Furanone (mm)” value in the series on Alternaria alternata (setting [5]) is listed as 35-37 mm; in series [1] (setting [5]) it was 40-45 mm; in the series with Aureobasidium pullulans (setting [5]), 3-10 mm. Also, the “Zone of Inhibition with 10 μg/ml of Furanone (mm)” value in the series on Alternaria alternata (setting [6]) is 40-42 mm; in the series with Penicillium digitatum (setting [6]), 32-45 mm; in series [1] (setting [6]), 42-56 mm; in the series on Aureobasidium pullulans (setting [6]), 15-17 mm. Further, the “Zone of Inhibition with 1 μg/ml of Furanone (mm)” value in the series on Penicillium digitatum (setting [7]) is given as 12-15 mm; in series [1] (setting [7]), 20-30 mm; in the series on Aureobasidium pullulans (setting [7]), 0 mm.

Source of the values: patent US20020111282A1, “Antimicrobial compositions containing quaternary ammonium compounds, silanes and other disinfectants with furanones” (priority 2000, published 2002).
